Assay results: US20260294884A1 (Insilico Medicine IP Limited, priority 2023, published 2026)
Where “and” joins values, the source holds several entries; their conditions need not be identical. Equal values may be shown once. Read-outs that look alike come from different tables or passages of the source.

Columns and labels:
Caco-2 cells = experiment: Permeability, Caco-2 assay; type: in vitro ADME; details: 37 °C; for Mean Papp A to B: Caco-2, pH 7.40, 2 hours
Experimental: Permeability of test compounds was determined in Caco-2 Assay. Caco-2 cells purchased from ATCC were seeded onto […] membranes (PET) in 96-well Corning Insert plates at 1×10^5 cells/cm^2, and refreshed medium every 4~5 days until to the 21st to 28th day for confluent cell monolayer formation. The transport buffer in the study was HBSS with 10.0 mM HEPES at pH 7.40±0.05. Test compound was tested at […] bi-directionally in duplicate. Digoxin was tested at 10.0 μM bi-directionally in duplicate, while nadolol and metoprolol were tested at 2.00 μM in A to B direction in duplicate. Final DMSO concentration was adjusted to less than 1%. The plate was incubated for 2 hours in CO2 incubator at 37±1° C., with 5% CO2 at saturated humidity without shaking. And all samples after mixed with acetonitrile containing internal standard were centrifuged at 3200×g for 10 min. For nadolol and metoprolol, 200 μL supernatant solution was diluted with 600 μL ultra-pure water for LC-MS/MS analysis. For digoxin and test compounds, 200 μL supernatant solution was diluted with 200 μL ultra-pure water for LC-MS/MS analysis. Concentrations of test and control compounds in starting solution, donor solution, and receiver solution were quantified by LC-MS/MS methodologies, using peak area ratio of analyte/internal standard. After transport assay, lucifer yellow rejection assay was applied to determine the Caco-2 cell monolayer integrity.

[1] = system: ER+/KAT6a^high ZR-75-1 breast cancer cell line; experiment: In vitro cytotoxicity in ER+/KAT6a^high ZR-75-1 breast cancer cell line (CTG assay, 14 days); type: cell-based, Human
Experimental: Single agent experiments (n=3 per each compound) were performed to obtain the IC10, IC25, IC50 and IC75 values for each drug to be used hereafter in the combo treatment.
The cytotoxicity was evaluated by CTG assay upon 14 days of treatment and stimulation with 1 nM E2. Statistical analysis was performed by 2 way ANOVA Tukey's multiple comparison test (* 0.01<p<0.05).
Human ER+/KAT6A^high breast cancer cell line ZR-75-1 (ATCC, Virginia, US) was cultured in RPMI 1640 medium (Gibco, Life Technologies, Carlsbad, CA, USA) supplemented with 10% fetal bovine serum (FBS)(Sigma, Saint Louis, CA, USA). All cells were incubated at 37° C., 5% CO2, 80-95% relative humidity.
Stock solutions were added at appropriate concentration in culture medium before the addition to cells.
For the cytotoxicity assay, cells were previously starved 48 h in RPMI 1640 no phenol red supplemented with 8% charcoal stripped FBS, and then seeded at appropriate density (2000 cells/well) in starvation media the day before starting the treatment. […] Concentration range was previously identified in single agent cytotoxic assay for the same time points in order to include in the combination experiment IC10, IC25, IC50 and IC75 values for each drug. After 14 days of treatment, CellTiter-Glo® 2.0 Cell Viability Assay (CTG)(Promega, Madison, WI, USA) was added to assess cell viability. Luminescence was measured 10 min later using Tecan Infinite M200 (Tecan Trading AG, Switzerland).

[2] = system: LD1-0009-362391 PDX model; design: species or system NCG Mice; details: mouse, in vivo
Experimental: About 50-90 mg tumor pieces were implanted subcutaneously on the right flank of each mouse. The treatments were started when the mean tumor size reaches approximately 150 (100-300) mm^3. The tumor size was measured in two dimensions using a caliper, and the volume was expressed in mm^3 using the formula: V=0.5 a×b^2 where a and b are the long and short diameters of the tumor, respectively.
(§1) Mice were assigned into groups using randomized block design based on their tumor volumes. The test article administration and the animal numbers in each study group are shown in the following experimental design table 5, the PDX model information are shown in the table 6.
The PDX model is derived from a patient with invasive breast carcinoma, who received and progressed on multiple prior lines of treatment including docetaxel, epirubicin, cyclophosphamide, gemcitabine, lobaplatin, tamoxifen, nab-paclitaxel, cisplatin, capecitabine, palbociclib and letrozole.
(§2) For routine monitoring, all study animals were monitored for not only tumor growth but also behavior such as mobility, food, and water consumption (by cage side checking only), body weight (BW), eye/hair matting and any other abnormal effect. Any mortality and/or abnormal clinical signs were recorded.
The measurement of tumor size was conducted twice a week. The tumor size was measured in two dimensions using a caliper, and the volume will be expressed in mm^3 using the formula: V=0.5a×b^2 where a and b are the long and short diameters of the tumor, respectively. The tumor sizes are used for the calculations of T/C values. The T/C value (in percent) is an indication of antitumor efficacy, T/C=RTV of treated group/RTV of Control group, RTV=Vt/V0, Vt is the mean volume after treatment on a given day, V0 is the mean tumor volume at the beginning of administration. Meanwhile the tumor volume is used for calculation of TGI of each group according to the following formula: When Tti−Tt0 >0, TGI (%)=[1−(Tti−Tt0)/(Vci−Vc0)]×100; when Tti−Tt0<0, TGI (%)=[1−(Tti−Tt0)/Tt0]×100. […]

[3] = Body weight change in PDX study in NCG mice; type: in vivo; details: P.O QD × 27; all mice
Description: as §1, §2
Body weights of all animals were measured twice a week throughout the study. Body weight change, expressed in %, is calculated using the following formula: BWL (%)=(BWi−BW0)/BW0×100, BWi is the body weight, BW0 is the bodyweight on the first day of treatment.
The statistical software GraphPad Prism was used to analyze the difference in tumor volume and body weight between the treatment group and the vehicle control group. All the data is described as Mean±SEM, and one-way ANOVA analysis of variance was performed.

[4] = single agent, 1 nM E2, read-out: IC50

Mean Papp A to B (Caco-2 cells)	SMILES	other results
11.8 10^-6 cm/s	COc1cccc(OC)c1S(=O)(=O)Nc1noc2cc(Oc3ccccn3)cc(OC)c12 [Compound 9, 2,6-dimethoxy-N-(4-methoxy-6-(pyridin-2-yloxy)benzo[d]isoxazol-3-yl)benzenesulfonamide]	–
0.439 10^-6 cm/s	COc1cccc(OC)c1S(=O)(=O)Nc1noc2cc(Cn3cccn3)c3c(c12)OCCC3 [Compound 14, N-(5-((1H-pyrazol-1-yl)methyl)-3,4-dihydro-2H-chromeno[8,7-d]isoxazol-9-yl)-2,6-dimethoxybenzenesulfonamide]	–
3.47 10^-6 cm/s	COc1cccc(OC)c1S(=O)(=O)Nc1noc2cc(Cn3cccn3)c3c(c12)OCCCC3 [Compound 19, N-(6-((1H-pyrazol-1-yl)methyl)-2,3,4,5,9,10-hexahydrooxepino [3′,2′: 5,6]benzo[1,2-d]isoxazol-10-yl)-2,6-dimethoxybenzenesulfonamide]	–
3.45 10^-6 cm/s	COc1cccc(OC)c1S(=O)(=O)Nc1noc2cc(Oc3ccccn3)cc(OC(F)F)c12 [Compound 22, N-(4-(difluoromethoxy)-6-(pyridin-2-yloxy)benzo[d]isoxazol-3-yl)-2,6-dimethoxybenzenesulfonamide]	–
1.30 10^-6 cm/s	COc1cccc(OC)c1S(=O)(=O)Nc1noc2cc(Oc3ccccn3)c3c(c12)OCC3 [Compound 23, 2,6-dimethoxy-N-(4-(pyridin-2-yloxy)-2,3-dihydrobenzofuro[7,6-d]isoxazol-8-yl)benzenesulfonamide]	–
12.9 10^-6 cm/s	COc1cccc(OC)c1S(=O)(=O)Nc1noc2cc(Oc3ccccn3)c3c(c12)OCCC3 [Compound 24, 2,6-dimethoxy-N-(5-(pyridin-2-yloxy)-3,4-dihydro-2H-chromeno[8,7-d]isoxazol-9-yl)benzenesulfonamide]	Efflux Ratio (Caco-2 cells; Caco-2, bi-directional, pH 7.40, 2 hours): 3.2
2.38 10^-6 cm/s	COc1ccnc(OC)c1S(=O)(=O)Nc1noc2cc(Oc3ccccn3)c3c(c12)OCCC3 [Compound 28, 2,4-dimethoxy-N-(5-(pyridin-2-yloxy)-3,4-dihydro-2H-chromeno[8,7-d]isoxazol-9-yl)pyridine-3-sulfonamide]	–
5.28 10^-6 cm/s	COc1ccccc1S(=O)(=O)Nc1noc2cc(Oc3nccs3)cc(OCF)c12 [Compound 56, N-(4-(fluoromethoxy)-6-(thiazol-2-yloxy)benzo[d]isoxazol-3-yl)-2-methoxybenzenesulfonamide]	–
6.20 10^-6 cm/s	COc1cccc(OC)c1S(=O)(=O)Nc1noc2cc(Oc3nccs3)cc(OC)c12 [Compound 59, 2,6-dimethoxy-N-(4-methoxy-6-(thiazol-2-yloxy)benzo[d]isoxazol-3-yl)benzenesulfonamide]	–
9.38 10^-6 cm/s	COc1ccccc1S(=O)(=O)Nc1noc2cc(Oc3nccs3)c3c(c12)OCCC3 [Compound 61, 2-methoxy-N-(5-(thiazol-2-yloxy)-3,4-dihydro-2H-chromeno[8,7-d]isoxazol-9-yl)benzenesulfonamide]	–
10.6 10^-6 cm/s	COc1cccc(OC)c1S(=O)(=O)Nc1noc2cc(Oc3nccs3)c3c(c12)OCCCC3 [Compound 62, 2,6-dimethoxy-N-(6-(thiazol-2-yloxy)-2,3,4,5,9,10-hexahydrooxepino [3′,2′: 5,6]benzo[1,2-d]isoxazol-10-yl)benzenesulfonamide]	–
9.00 10^-6 cm/s	COc1cc(C)nc(OC)c1S(=O)(=O)Nc1noc2cc(Oc3nccs3)c3c(c12)OCCCC3 [Compound 64]	–

Continued, compound first:

SMILES	Mean Papp A to B (Caco-2 cells)	other results
COc1cccc(OC)c1S(=O)(=O)Nc1noc2cc(Cc3ccccn3)c3c(c12)OCCC3 [Compound 46, 2,6-dimethoxy-N-(5-(pyridin-2-ylmethyl)-3,4-dihydro-2H-chromeno[8,7-d]isoxazol-9-yl)benzenesulfonamide]	2.66 10^-6 cm/s	–
COc1cccc(OC)c1S(=O)(=O)Nc1noc2cc(Cc3nccs3)c3c(c12)OCCC3 [Compound 47]	3.53 10^-6 cm/s	–
COc1cc(C)nc(OC)c1S(=O)(=O)Nc1noc2cc(Oc3nccs3)cc(OCF)c12 [Compound 55, N-(4-(fluoromethoxy)-6-(thiazol-2-yloxy)benzo[d]isoxazol-3-yl)-2,4-dimethoxy-6-methylpyridine-3-sulfonamide]	1.46 10^-6 cm/s	–
COc1cc(C)nc(OC)c1S(=O)(=O)Nc1noc2cc(Oc3nccs3)cc(OC)c12 [Compound 57, 2,4-dimethoxy-N-(4-methoxy-6-(thiazol-2-yloxy)benzo[d]isoxazol-3-yl)-6-methylpyridine-3-sulfonamide]	3.38 10^-6 cm/s	IC50 ([1]; combination experiments, compound alone, 1 nM E2 (FIG. 3B), read-out: IC50 of dose-response curve, used alone (combination experiments)): 3.78 nM; IC10 ([1]; single agent, 1 nM E2): 0.3 nM; IC25 ([1]; single agent, 1 nM E2): 1.2 nM; IC75 ([1]; single agent, 1 nM E2): 15 nM; IC50 [1, 4]: 4 nM; IC50 ([1]; with elacestrant (IC25, 56 nM), 1 nM E2 (FIG. 3B), read-out: IC50 of dose-response curve, in combination with elacestrant): 0.8 nM; TGI [2]: 67.7% and 83.8%; anti-tumor activity [2]: potent and dose-dependent anti-tumor activity; mean endpoint TV (tumor volume) [2]: 239 mm^3 and 189 mm^3; body weight [3]: maintained the body weight well
COc1ccccc1S(=O)(=O)Nc1noc2cc(Oc3nccs3)cc(OC)c12 [Compound 60, 2-methoxy-N-(4-methoxy-6-(thiazol-2-yloxy)benzo[d]isoxazol-3-yl)benzenesulfonamide]	13.7 10^-6 cm/s	–
COc1ccccc1S(=O)(=O)Nc1noc2cc(Oc3nccs3)c3c(c12)OCCCC3 [Compound 63]	6.48 10^-6 cm/s	–
COc1ccccc1S(=O)(=O)Nc1noc2cc(Cn3cccn3)cc(OC)c12 [Compound 70]	–	body weight [3]: maintained the body weight well
CCNCCc1ccc(CN(CC)c2cc(OC)ccc2[C@@H]2CCc3cc(O)ccc3C2)cc1 [elacestrant, reference compound]	–	IC50 ([1]; elacestrant single agent, 1 nM E2, read-out: IC50 (cytotoxic action)): 260 nM; IC25 ([1]; elacestrant, 1 nM E2): 56 nM; IC10 ([1]; single agent, 1 nM E2): 10 nM; IC25 ([1]; single agent, 1 nM E2): 56 nM; IC75 ([1]; single agent, 1 nM E2, non clinically relevant dose): 1430 nM; IC50 [1, 4]: 260 nM
